Reference: patent publication US20230302021A1, “COMPOSITIONS AND METHODS FOR TREATING CASTRATION-RESISTANT PROSTATE CANCER” (Purdue Research Foundation, priority 2022, published 2023)

Key:
22RV1 cells = experiment: Cell proliferation / viability (MTT) assay; type: cell-based; conditions: for proliferation of 22RV1 cells: ENZ-resistant 22RV1 cells, FIG. 1
Method: Cell viability assay: An MTT assay was performed to evaluate the effect of drugs on cell viability. Ten thousand cells per well were plated in a 96-well plate and treated with drugs the following day. The MTT solution (0.5 mg/ml) was then applied to the cells for 1 h at 37° C. with 5% CO2. Precipitated formazan was dissolved in DMSO and quantified at 570 nm using a microplate reader (Beckman-Coulter). Combination index: The data obtained from the MTT assay were used to calculate cell viability and also used to calculate combination index (CI). The Chou-Talalay method was applied to determine the CI using CompuSyn software (Biosoft).

22RV1-derived xenograft = experiment: 22RV1-derived mouse xenograft model; type: in vivo; conditions: castrated nude mice, daily for 3 weeks; ENZ 25 mg/kg/day oral gavage, AVA 20 mg/kg/day intraperitoneal
Method: All procedures were approved by the Purdue Animal Care and Use Committee. Five-week-old male nude mice (Jackson Laboratory) were purchased for the experiment. […] ENZ stock prepared in DMSO was diluted in corn oil for oral gavage and AVA solution was prepared. Once the tumors reached approximately 50-100 mm^3, the mice were randomly divided into four groups for daily drug administration for 3 weeks: (i) vehicle oral gavage (corn oil)+vehicle intraperitoneal injection (2% tween-80 (v/v) and 3.2 mg/mL 2-hydroxypropyl-β-cyclodextrin in PBS); (ii) ENZ alone (25 mg/kg body weight/day) by oral gavage; (iii) AVA alone (20 mg/kg body weight/day) by intraperitoneal injection; (iv) ENZ (25 mg/kg/day)+AVA (20 mg/kg/day). Tumors were monitored every two days with a caliper and tumor volumes were calculated with the formula V=0.5×L×W^2 (where V is volume, L is length, W is the width). At the end of the study, mice were euthanized and tumor tissues were excised and weighted.

AR signaling = experiment: qPCR of genes related to AR signaling in 22RV1 cells; type: cell-based; conditions: 20 μM ENZ in presence or absence of 4 μM avasimibe, 24 h
SOAT1 = target: T1, SOAT1 (Homo sapiens, UniProt P35610); conditions: cited from earlier work
T1 sequence (P35610 1-550): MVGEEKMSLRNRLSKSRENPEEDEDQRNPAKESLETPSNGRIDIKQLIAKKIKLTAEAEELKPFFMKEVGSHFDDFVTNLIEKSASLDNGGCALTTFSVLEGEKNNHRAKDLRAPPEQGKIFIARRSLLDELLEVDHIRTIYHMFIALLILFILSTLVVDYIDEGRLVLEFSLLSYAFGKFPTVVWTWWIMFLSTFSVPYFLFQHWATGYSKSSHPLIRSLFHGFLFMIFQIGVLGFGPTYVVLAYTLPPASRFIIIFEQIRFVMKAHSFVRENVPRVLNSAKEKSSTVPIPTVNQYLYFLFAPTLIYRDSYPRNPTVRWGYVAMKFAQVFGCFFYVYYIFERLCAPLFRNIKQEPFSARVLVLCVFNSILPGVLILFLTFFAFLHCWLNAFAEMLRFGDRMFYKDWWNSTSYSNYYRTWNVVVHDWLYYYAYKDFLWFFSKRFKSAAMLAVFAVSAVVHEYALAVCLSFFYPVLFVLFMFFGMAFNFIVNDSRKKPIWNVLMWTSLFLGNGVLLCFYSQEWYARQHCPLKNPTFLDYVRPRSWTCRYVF

[1] = rats, dogs, and humans; cited from earlier work

| Structure (SMILES) | proliferation of 22RV1 cells (22RV1 cells) | tumor growth (appearance, average tumor volume, tumor weight) (22RV1-derived xenograft) | AR expression (mRNA) (AR signaling) | AR-V7 expression (mRNA) (AR signaling) | Nkx3.1 expression (mRNA) (AR signaling) | Psa expression (mRNA) (AR signaling) | IC50 (SOAT1) [µM] | safety when administered [1] | proliferation of shRNA-transfected 22RV1 cells (22RV1 cells; shCTRL or shSOAT1 with DMSO or ENZ, FIG. 5B) | IC50 value for SOAT1 relative to the corresponding IC50 value for SOAT2 (SOAT1; SOAT1 vs SOAT2 selectivity) |
| --- | --- | --- | --- | --- | --- | --- | --- | --- | --- | --- |
| CC(C)c1cc(C(C)C)c(CC(=O)NS(=O)(=O)Oc2c(C(C)C)cccc2C(C)C)c(C(C)C)c1 [AVA, avasimibe] | slightly suppressed cell proliferation | did not sufficiently delay the tumor growth | did not change | did not change | downregulated | downregulated | 24 | considered safe |  |  |
| CNC(=O)c1ccc(N2C(=S)N(c3ccc(C#N)c(C(F)(F)F)c3)C(=O)C2(C)C)cc1F [ENZ, enzalutamide] | resistant | did not sufficiently delay the tumor growth |  |  |  |  |  |  | little effect on the proliferation |  |
| CCOC(=O)OC(=O)OCC [pyrocarbonate, diethyl pyrocarbonate] |  |  |  |  |  |  |  |  |  | at least twice or higher |
